Measured values reported in US20060211698A1, “Bicyclic heteroaryl derivatives for treating viruses” (Genelabs, Inc., priority 2005, published 2006).

Molecular target: T1, HCV-NS5b (Hepatitis C virus genotype 1b, UniProt Q9WMX2)
T1 construct: The cloned fragment was missing the C terminus 21 amino acid residues; (His)6 (C); made in house; host or cells: XL-1 cells (E. coli)
Experiment: HCV-NS5b Enzyme Assay
Format: biochemical
Conditions: 1 μM test compound; incorporation of [3H]-UTP, 37° C., 2 hours
Source text: The coding sequence of NS5b protein was cloned by PCR from pFKI389luc/NS3-3′/ET as described by Lohmann, V., et al. (1999) Science 285, 110-113 using the following primers: • […] (SEQ. ID. NO. 1) • […] (SEQ. ID. NO. 2)
The cloned fragment was missing the C terminus 21 amino acid residues. The cloned fragment is inserted into an IPTG-inducible expression plasmid that provides an epitope tag (His)6 at the carboxy terminus of the protein.
The recombinant enzyme was expressed in XL-1 cells and after induction of expression, the protein was purified using affinity chromatography on a nickel-NTA column. Storage condition is 10 mM Tris-HCl pH 7.5, 50 mM NaCl, 0.1 mM EDTA, 1 mM DTT, 20% glycerol at −20° C.
The polymerase activity was assayed by measuring incorporation of radiolabeled UTP into a RNA product using a biotinylated, heteropolymeric template, which includes a portion of the HCV genome. Typically, the assay mixture […] contains 10 mM Tris-HCl (pH 7.5), 5 mM MgCl2, 0.2 mM EDTA, 10 mM KCl, 1 unit/μL RNAsin. 1 mM DTT, 10 μM each of NTP, including [^3H]-UTP, and 10 ng/μL biotinylated heteropolymeric template. 20× test compound in 2 μl's was then added as a 100% DMSO solution to achieve a final DMSO concentration of 5%. For IC50 determination a 10-point dose response was used. The compounds were serial diluted 2-fold […]. Typically for IC50's, compounds were tested starting at 50 uM or 2 μm depending on the potency. Reactions were started with addition of 10×NS5B in 4 μl's and allowed to incubate at 37° C. for 2 hours. Reactions were quenched with 8 μL of 100 mM EDTA and reaction mixtures (30 μL) were transferred to streptavidin-coated scintillation proximity microtiter plates (FlashPlates) and incubated at 4° C. overnight. Incorporation of radioactivity was determined by scintillation counting (cpm). The % Inhibition at a particular concentration was determined using the following equation, % Inhibition=100−[100*(cpm with inhibitor−bg)/(cpm with no inhibitor−bg)] where bg was the background with no enzyme.

| SMILES | inhibition at 1 µM [%] |
| --- | --- |
| Cc1ccnc(-c2ccc3cc(-c4c(C5CCCCC5)c5ccc(C(=O)O)cc5n4CC(=O)N4CCOCC4)ccc3n2)c1 [Compound 249, 3-Cyclohexyl-2-[2-(4-methyl-pyridin-2-yl)-quinolin-6-yl]-1-(2-morpholin-4-yl-2-oxo-ethyl)-1H-indole-6-carboxylic acid] | 99.5 |
| COc1cc(OC)cc(-c2ccc3cc(-c4c(C5CCCCC5)c5ccc(C(=O)O)cc5n4CC(=O)N4CCOCC4)ccc3n2)c1 [Compound 251, 3-Cyclohexyl-2-[2-(3,5-dimethoxy-phenyl)-quinolin-6-yl]-1-(2-morpholin-4-yl-2-oxo-ethyl)-1H-indole-6-carboxylic acid] | 98.5 |
| COc1ccc(-c2ccc3cc(-c4c(C5CCCCC5)c5ccc(C(=O)O)cc5n4CC(=O)N4CCOCC4)ccc3n2)cc1OC [Compound 253, 3-Cyclohexyl-2-[2-(3,4-dimethoxy-phenyl)-quinolin-6-yl]-1-(2-morpholin-4-yl-2-oxo-ethyl)-1H-indole-6-carboxylic acid] | 97.5 |
| COc1ccc(-c2ccc3cc(-c4c(C5CCCCC5)c5ccc(C(=O)O)cc5n4CC(=O)N4CCOCC4)ccc3n2)c(F)c1 [Compound 257, 3-Cyclohexyl-2-[2-(2-fluoro-4-methoxy-phenyl)-quinolin-6-yl]-1-(2-morpholin-4-yl-2-oxo-ethyl)-1H-indole-6-carboxylic acid] | 98.6 |
| Cc1cc(-c2ccc3cc(-c4c(C5CCCCC5)c5ccc(C(=O)O)cc5n4CC(=O)N4CCOCC4)ccc3n2)c(C)s1 [Compound 258, 3-Cyclohexyl-2-[2-(2,5-dimethyl-thiophen-3-yl)-quinolin-6-yl]-1-(2-morpholin-4-yl-2-oxo-ethyl)-1H-indole-6-carboxylic acid] | 97.4 |
| O=C(O)c1ccc2c(C3CCCCC3)c(-c3ccc4nc(-c5c(F)cccc5F)ccc4c3)n(CC(=O)N3CCOCC3)c2c1 [Compound 259, 3-Cyclohexyl-2-[2-(2,6-difluoro-phenyl)-quinolin-6-yl]-1-(2-morpholin-4-yl-2-oxo-ethyl)-1H-indole-6-carboxylic acid] | 95.8 |
| Cc1nc(C)c(-c2ccc3cc(-c4c(C5CCCCC5)c5ccc(C(=O)O)cc5n4CC(=O)N4CCOCC4)ccc3n2)o1 [Compound 260, 3-Cyclohexyl-2-[2-(2,4-dimethyl-oxazol-5-yl)-quinolin-6-yl]-1-(2-morpholin-4-yl-2-oxo-ethyl)-1H-indole-6-carboxylic acid] | 96 |
| O=C(O)c1ccc2c(C3CCCCC3)c(-c3ccc4nc(-c5ccc(C(F)(F)F)cc5)ccc4c3)n(CC(=O)N3CCOCC3)c2c1 [Compound 263, 3-Cyclohexyl-1-(2-morpholin-4-yl-2-oxo-ethyl)-2-[2-(4-trifluoromethyl-phenyl)-quinolin-6-yl]-1H-indole-6-carboxylic acid] | 94.4 |
| O=C(O)c1ccc2c(C3CCCCC3)c(-c3ccc4nc(-c5ccccc5C(F)(F)F)ccc4c3)n(CC(=O)N3CCOCC3)c2c1 [Compound 267, 3-Cyclohexyl-1-(2-morpholin-4-yl-2-oxo-ethyl)-2-[2-(2-trifluoromethyl-phenyl)-quinolin-6-yl]-1H-indole-6-carboxylic acid] | 94.6 |
| Cc1nccnc1-c1ccc2cc(-c3c(C4CCCCC4)c4ccc(C(=O)O)cc4n3CC(=O)N3CCOCC3)ccc2n1 [Compound 268, 3-Cyclohexyl-2-[2-(3-methyl-pyrazin-2-yl)-quinolin-6-yl]-1-(2-morpholin-4-yl-2-oxo-ethyl)-1H-indole-6-carboxylic acid] | 96.1 |
| CCOc1ncc(-c2ccc3cc(-c4c(C5CCCCC5)c5ccc(C(=O)O)cc5n4CC(=O)N4CCOCC4)ccc3n2)c(C)n1 [Compound 269, 3-Cyclohexyl-2-[2-(2-ethoxy-4-methyl-pyrimidin-5-yl)-quinolin-6-yl]-1-(2-morpholin-4-yl-2-oxo-ethyl)-1H-indole-6-carboxylic acid] | 93.6 |
| COc1ccc(F)c(-c2ccc3cc(-c4c(C5CCCCC5)c5ccc(C(=O)O)cc5n4CC(=O)N4CCOCC4)ccc3n2)c1 [Compound 270, 3-Cyclohexyl-2-[2-(2-fluoro-5-methoxy-phenyl)-quinolin-6-yl]-1-(2-morpholin-4-yl-2-oxo-ethyl)-1H-indole-6-carboxylic acid] | 95 |
| COc1ccc(-c2ccc3cc(-c4c(C5CCCCC5)c5ccc(C(=O)O)cc5n4CC(=O)N4CCOCC4)ccc3n2)c(OC)c1OC [Compound 272, 3-Cyclohexyl-1-(2-morpholin-4-yl-2-oxo-ethyl)-2-[2-(2,3,4-trimethoxy-phenyl)-quinolin-6-yl]-1H-indole-6-carboxylic acid] | 101 |

Other lines, results leading:

| inhibition at 1 µM [%] | SMILES |
| --- | --- |
| 99.9 | Cc1ccc(-c2ccc3cc(-c4c(C5CCCCC5)c5ccc(C(=O)O)cc5n4CC(=O)N4CCOCC4)ccc3n2)cc1C [Compound 250, 3-Cyclohexyl-2-[2-(3,4-dimethyl-phenyl)-quinolin-6-yl]-1-(2-morpholin-4-yl-2-oxo-ethyl)-1H-indole-6-carboxylic acid] |
| 95 | Cc1ccc(-c2ccc3cc(-c4c(C5CCCCC5)c5ccc(C(=O)O)cc5n4CC(=O)N4CCOCC4)ccc3n2)cc1 [Compound 252, 3-Cyclohexyl-1-(2-morpholin-4-yl-2-oxo-ethyl)-2-(2-p-tolyl-quinolin-6-yl)-1H-indole-6-carboxylic acid] |
| 96.9 | COc1ccc(-c2ccc3cc(-c4c(C5CCCCC5)c5ccc(C(=O)O)cc5n4CC(=O)N4CCOCC4)ccc3n2)cc1 [Compound 254, 3-Cyclohexyl-2-[2-(4-methoxy-phenyl)-quinolin-6-yl]-1-(2-morpholin-4-yl-2-oxo-ethyl)-1H-indole-6-carboxylic acid] |
| 97.4 | O=C(O)c1ccc2c(C3CCCCC3)c(-c3ccc4nc(-c5ccccc5F)ccc4c3)n(CC(=O)N3CCOCC3)c2c1 [Compound 255, 3-Cyclohexyl-2-[2-(2-fluoro-phenyl)-quinolin-6-yl]-1-(2-morpholin-4-yl-2-oxo-ethyl)-1H-indole-6-carboxylic acid] |
| 98.1 | O=C(O)c1ccc2c(C3CCCCC3)c(-c3ccc4nc(-c5cccc([N+](=O)[O-])c5)ccc4c3)n(CC(=O)N3CCOCC3)c2c1 [Compound 256, 3-Cyclohexyl-2-[2-(3-nitro-phenyl)-quinolin-6-yl]-1-(2-morpholin-4-yl-2-oxo-ethyl)-1H-indole-6-carboxylic acid] |
| 97.1 | O=C(O)c1ccc2c(C3CCCCC3)c(-c3ccc4nc(-c5cccc(F)c5)ccc4c3)n(CC(=O)N3CCOCC3)c2c1 [Compound 261, 3-Cyclohexyl-2-[2-(3-fluoro-phenyl)-quinolin-6-yl]-1-(2-morpholin-4-yl-2-oxo-ethyl)-1H-indole-6-carboxylic acid] |
| 97.3 | O=C(O)c1ccc2c(C3CCCCC3)c(-c3ccc4nc(-c5cccc(Br)c5)ccc4c3)n(CC(=O)N3CCOCC3)c2c1 [Compound 262, 2-[2-(3-Bromo-phenyl)-quinolin-6-yl]-3-cyclohexyl-1-(2-morpholin-4-yl-2-oxo-ethyl)-1H-indole-6-carboxylic acid] |
| 93 | Nc1cccc(-c2ccc3cc(-c4c(C5CCCCC5)c5ccc(C(=O)O)cc5n4CC(=O)N4CCOCC4)ccc3n2)c1 [Compound 264, 2-[2-(3-Amino-phenyl)-quinolin-6-yl]-3-cyclohexyl-1-(2-morpholin-4-yl-2-oxo-ethyl)-1H-indole-6-carboxylic acid] |
| 96.3 | O=C(O)c1ccc2c(C3CCCCC3)c(-c3ccc4nc(-c5ccc(F)cc5)ccc4c3)n(CC(=O)N3CCOCC3)c2c1 [Compound 265, 3-Cyclohexyl-2-[2-(4-fluoro-phenyl)-quinolin-6-yl]-1-(2-morpholin-4-yl-2-oxo-ethyl)-1H-indole-6-carboxylic acid] |
| 97.1 | O=C(O)c1ccc2c(C3CCCCC3)c(-c3ccc4nc(-c5ccc(F)c(F)c5)ccc4c3)n(CC(=O)N3CCOCC3)c2c1 [Compound 266, 3-Cyclohexyl-2-[2-(3,4-difluoro-phenyl)-quinolin-6-yl]-1-(2-morpholin-4-yl-2-oxo-ethyl)-1H-indole-6-carboxylic acid] |
| 100 | Cn1cccc1-c1ccc2cc(-c3c(C4CCCCC4)c4ccc(C(=O)O)cc4n3CC(=O)N3CCOCC3)ccc2n1 [Compound 271, 3-Cyclohexyl-2-[2-(1-methyl-1H-pyrrol-2-yl)-quinolin-6-yl]-1-(2-morpholin-4-yl-2-oxo-ethyl)-1H-indole-6-carboxylic acid] |
